Measured values: ChEMBL document CHEMBL1201862, “PubChem BioAssay data set” (2004)
The source made the active and inactive calls.

Legend:
[1] = cells; assay type: functional, cell-based; details: HEK-CNG
[2] = biological target: T1, Galanin receptor type 3 (Homo sapiens, UniProt O60755); experiment: Fluorescence-based cell-based primary high throughput dose response assay to identify antagonists of the Galanin Receptor 3 (GalR3).; assay type: functional
T1 sequence (O60755 whole entry): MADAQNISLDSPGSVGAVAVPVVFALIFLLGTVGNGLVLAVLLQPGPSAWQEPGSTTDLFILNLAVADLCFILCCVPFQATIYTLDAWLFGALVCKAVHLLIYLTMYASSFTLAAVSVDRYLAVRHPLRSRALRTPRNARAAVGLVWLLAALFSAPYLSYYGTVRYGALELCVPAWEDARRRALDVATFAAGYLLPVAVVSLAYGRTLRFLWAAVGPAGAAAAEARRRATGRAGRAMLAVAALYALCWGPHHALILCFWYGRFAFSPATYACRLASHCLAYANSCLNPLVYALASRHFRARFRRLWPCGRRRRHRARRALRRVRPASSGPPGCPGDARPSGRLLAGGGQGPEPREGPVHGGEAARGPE

[3] = biological target: T2, Leucine aminopeptidase (Plasmodium falciparum 3D7, UniProt Q8IL11); experiment: P. falciparum M17LAP inhibitors, primary screen, biochemical, fluorogenic H-Leu-NHMec substrate, 1536-well (AID 1619); assay type: functional
T2 sequence (Q8IL11 whole entry): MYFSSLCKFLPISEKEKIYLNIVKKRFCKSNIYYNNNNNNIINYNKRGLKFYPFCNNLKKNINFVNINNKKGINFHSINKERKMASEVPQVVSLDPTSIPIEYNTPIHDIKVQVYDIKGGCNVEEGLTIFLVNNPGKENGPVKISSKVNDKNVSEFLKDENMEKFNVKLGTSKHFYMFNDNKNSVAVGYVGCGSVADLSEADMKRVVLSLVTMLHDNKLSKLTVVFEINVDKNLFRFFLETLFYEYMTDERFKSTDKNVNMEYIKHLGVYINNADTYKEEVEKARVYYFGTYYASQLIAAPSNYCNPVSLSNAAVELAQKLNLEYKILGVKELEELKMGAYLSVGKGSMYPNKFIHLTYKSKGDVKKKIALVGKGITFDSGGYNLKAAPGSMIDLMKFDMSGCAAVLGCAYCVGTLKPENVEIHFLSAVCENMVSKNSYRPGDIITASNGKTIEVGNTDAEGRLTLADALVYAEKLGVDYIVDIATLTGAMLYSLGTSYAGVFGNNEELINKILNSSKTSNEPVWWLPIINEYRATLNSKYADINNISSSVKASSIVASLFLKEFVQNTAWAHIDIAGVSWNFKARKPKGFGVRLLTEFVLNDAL

[4] = biological target: T3, Protein RecA (Mycobacterium tuberculosis, UniProt P9WHJ3); experiment: Fluorescence Cell-Free Homogeneous Dose Retest to Identify Inhibitors of RecA-Intein Splicing Activity. [Related pubchem assays (depositor defined):AID2097, AID2223, AID489010, AID492950]; assay type: functional
T3 sequence (P9WHJ3 whole entry): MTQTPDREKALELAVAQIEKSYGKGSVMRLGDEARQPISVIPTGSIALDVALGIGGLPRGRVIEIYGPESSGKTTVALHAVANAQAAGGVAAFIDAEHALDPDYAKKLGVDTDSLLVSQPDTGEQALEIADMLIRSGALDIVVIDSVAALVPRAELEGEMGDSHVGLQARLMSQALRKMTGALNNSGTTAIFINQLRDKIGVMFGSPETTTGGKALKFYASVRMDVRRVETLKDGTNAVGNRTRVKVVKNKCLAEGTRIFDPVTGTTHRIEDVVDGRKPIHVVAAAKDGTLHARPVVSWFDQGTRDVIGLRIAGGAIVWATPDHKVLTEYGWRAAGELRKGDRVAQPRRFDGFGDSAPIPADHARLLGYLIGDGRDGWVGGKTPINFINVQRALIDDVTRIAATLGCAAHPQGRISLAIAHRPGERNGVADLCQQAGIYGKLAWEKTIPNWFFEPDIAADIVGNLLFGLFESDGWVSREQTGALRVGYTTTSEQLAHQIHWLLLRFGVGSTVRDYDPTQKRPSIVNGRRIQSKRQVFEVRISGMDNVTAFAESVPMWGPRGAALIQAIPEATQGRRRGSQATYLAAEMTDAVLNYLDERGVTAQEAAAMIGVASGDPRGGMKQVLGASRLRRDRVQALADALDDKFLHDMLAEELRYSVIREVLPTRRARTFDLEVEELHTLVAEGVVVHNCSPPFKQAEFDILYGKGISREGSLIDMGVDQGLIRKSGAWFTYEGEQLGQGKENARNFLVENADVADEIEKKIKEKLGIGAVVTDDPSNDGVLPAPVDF

[5] = biological target: T4, Replicative DNA helicase DnaB (Mycobacterium tuberculosis, UniProt P9WMR3); experiment: DnaB intein splicing inhibitors, dose response, biochemical, cell-free fluorescence (AID 449749); assay type: functional
T4 sequence (P9WMR3 whole entry): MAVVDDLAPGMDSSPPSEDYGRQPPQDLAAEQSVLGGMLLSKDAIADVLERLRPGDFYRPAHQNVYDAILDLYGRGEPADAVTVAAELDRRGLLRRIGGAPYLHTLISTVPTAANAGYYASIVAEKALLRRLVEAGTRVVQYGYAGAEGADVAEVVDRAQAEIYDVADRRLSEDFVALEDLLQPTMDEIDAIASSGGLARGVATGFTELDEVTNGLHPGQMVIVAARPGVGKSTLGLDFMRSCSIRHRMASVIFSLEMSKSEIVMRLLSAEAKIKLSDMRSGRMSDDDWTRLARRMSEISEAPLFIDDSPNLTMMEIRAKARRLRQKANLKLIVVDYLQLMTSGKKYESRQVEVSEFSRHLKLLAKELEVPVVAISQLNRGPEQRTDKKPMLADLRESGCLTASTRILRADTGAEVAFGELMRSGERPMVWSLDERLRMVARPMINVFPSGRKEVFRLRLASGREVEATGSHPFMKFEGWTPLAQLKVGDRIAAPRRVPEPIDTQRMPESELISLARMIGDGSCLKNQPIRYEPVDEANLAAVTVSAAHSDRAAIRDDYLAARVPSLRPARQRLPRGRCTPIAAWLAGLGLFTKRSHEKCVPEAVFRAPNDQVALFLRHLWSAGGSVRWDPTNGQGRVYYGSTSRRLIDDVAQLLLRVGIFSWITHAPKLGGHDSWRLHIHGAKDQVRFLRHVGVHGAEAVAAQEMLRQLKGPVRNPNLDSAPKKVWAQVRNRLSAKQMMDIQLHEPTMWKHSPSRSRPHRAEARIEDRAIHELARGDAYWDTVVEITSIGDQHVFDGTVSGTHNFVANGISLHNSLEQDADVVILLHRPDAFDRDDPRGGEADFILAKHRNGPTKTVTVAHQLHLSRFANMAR

[6] = Intein inhibitors as potential Tuberculosis drugs, a cytotoxicity screen. [Related pubchem assays (depositor defined):AID2221, AID2223, AID434968, AID435010, AID449749, AID449750, AID489010]; assay type: functional
[7] = test system: T-cell; experiment: inhibitors of CD8+ T cell–vesicle binding, dose response, mouse 2C CD8+ T cells, flow cytometry (AID 485284); assay type: functional
[8] = biological target: Complement C1s subcomponent (Homo sapiens, UniProt P09871); experiment: Complement C1s ELISA. [Related pubchem assays: 538, 787 ]; assay type: functional
[9] = biological target: T5, Coagulation factor XII (Homo sapiens, UniProt P00748); experiment: FXIIa inhibitor potency, concentration-response, biochemical (AID 716); assay type: functional
T5 sequence (P00748 whole entry): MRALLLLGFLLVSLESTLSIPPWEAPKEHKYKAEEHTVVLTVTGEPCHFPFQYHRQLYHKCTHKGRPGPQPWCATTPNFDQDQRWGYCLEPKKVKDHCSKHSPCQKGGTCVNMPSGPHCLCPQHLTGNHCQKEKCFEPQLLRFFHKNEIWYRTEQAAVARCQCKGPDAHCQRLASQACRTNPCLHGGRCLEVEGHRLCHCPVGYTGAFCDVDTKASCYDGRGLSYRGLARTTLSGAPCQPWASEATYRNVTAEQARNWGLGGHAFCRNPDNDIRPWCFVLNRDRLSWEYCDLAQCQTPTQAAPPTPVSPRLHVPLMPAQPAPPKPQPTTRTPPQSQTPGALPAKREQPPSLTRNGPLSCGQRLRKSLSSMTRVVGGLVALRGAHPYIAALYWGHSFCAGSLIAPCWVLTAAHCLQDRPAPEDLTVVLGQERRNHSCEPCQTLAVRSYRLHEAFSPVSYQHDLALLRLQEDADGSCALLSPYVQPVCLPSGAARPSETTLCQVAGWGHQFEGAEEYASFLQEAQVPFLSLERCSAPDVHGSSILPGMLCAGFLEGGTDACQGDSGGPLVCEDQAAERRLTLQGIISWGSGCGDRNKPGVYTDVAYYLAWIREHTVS

[10] = test system: HEK293; experiment: cells; assay type: functional, cell-based; details: Homo sapiens
[11] = biological target: Nucleotide-binding oligomerization domain-containing protein 2 (Homo sapiens, UniProt Q9HC29); experiment: NOD2 signaling inhibitors, cell-based, luminescence, uHTS, HEK293 (AID 1566); assay type: functional
[12] = test system: HEK293; experiment: NOD2 signaling inhibitors in MDP-stimulated cells, cell-based, uHTS, luminescence (AID 2001); assay type: functional; details: Homo sapiens
[13] = test system: HEK293; experiment: cells; assay type: functional, cell-based; details: Homo sapiens; remark: listed apart in the source
[14] = test system: HEK293; experiment: NOD1 signaling inhibitors, primary screen, cell-based, luminescence, uHTS (AID 1578); assay type: functional; details: Homo sapiens
[15] = biological target: Hexokinase (Trypanosoma brucei, UniProt Q38C41); experiment: Confirmation assay for inhibitors of Trypanosoma brucei hexokinase 1-Analogue-first series. [Related pubchem assays (depositor defined):AID1430, AID1632, AID2516, AID2560, AID2579, AID2600, AID449725, AID492951]; assay type: functional
[16] = biological target: Glutathione S-transferase omega-1 (Homo sapiens, UniProt P78417); experiment: GSTO1 inhibitor potency, recombinant enzyme, late-stage follow-up, biochemical, SE-Rh probe, in-gel fluorescence, powder samples, set 2 (AID 463142); assay type: functional
[17] = biological target: Sphingosine 1-phosphate receptor 4 (Homo sapiens, UniProt O95977); experiment: S1P4 receptor agonists, human, late-stage follow-up, cell-based, fluorescence, synthesized compounds (AID 463107); assay type: functional
[18] = biological target: Voltage-dependent T-type calcium channel subunit alpha-1H (Homo sapiens, UniProt O95180); experiment: Cav3.2 T-type channel inhibitors, cell-based, synthetic library set 1, calcium flux (AID 493022); assay type: functional
[19] = biological target: DNA dC->dU-editing enzyme APOBEC-3G (Homo sapiens, UniProt Q9HC16); experiment: Dose Response confirmation of small molecule APOBEC3G DNA Deaminase Inhibitors via a fluorescence-based single-stranded DNA deaminase assay. [Related pubchem assays (depositor defined):AID493012, AID493028]; assay type: functional
[20] = biological target: DNA dC->dU-editing enzyme APOBEC-3A (Homo sapiens, UniProt P31941); experiment: APOBEC3A DNA deaminase inhibitors, dose response, biochemical (AID 504722); assay type: functional
[21] = inhibitors of intracellular T. cruzi replication, confirmation, NIH3T3 host cells, beta-gal luminescence (AID 2044); assay type: functional, cell-based;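 further: intracellular parasites grown in NIH/3T3 mouse fibroblasts as host cells; luminescent beta-galactosidase reporter signal from transgenic T. cruzi replicating inside host cells; inhibitors lower the luminescence signal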
[22] = test system: INS1; experiment: beta cell apoptosis inhibitors, cytokine rescue, dose response, luminescence, retest (AID 449756); assay type: functional, cell-based; details: Rattus norvegicus;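 further: cell death triggered by IL-1 beta plus TNF-alpha plus IFN-gamma mixture; protective hits raise ATP signal compared with cytokine alone wells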
[23] = cells; assay type: functional
[24] = THP-1 cell cytotoxicity, dose response, cytotoxicity control for non-replicating M. tuberculosis project (AID 489025); assay type: functional
[25] = HepG2 cell cytotoxicity, dose response, cytotoxicity control for non-replicating M. tuberculosis project (AID 489018); assay type: functional; details: Mycobacterium tuberculosis
[26] = cytotoxicity toward NIH3T3 fibroblasts, dose response, counter-screen, cell-based, ATP luminescence, mouse fibroblasts (AID 2010); assay type: functional;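 further: cells exposed to compound for about 90 hours before reading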
[27] = Vero E6 cell cytotoxicity, dose response, cytotoxicity control for non-replicating M. tuberculosis project, secondary assay (AID 492998); assay type: functional, VeroE6; details: Vero C1008

DNA dC->dU-editing enzyme APOBEC-3A, sequence (P31941 whole entry): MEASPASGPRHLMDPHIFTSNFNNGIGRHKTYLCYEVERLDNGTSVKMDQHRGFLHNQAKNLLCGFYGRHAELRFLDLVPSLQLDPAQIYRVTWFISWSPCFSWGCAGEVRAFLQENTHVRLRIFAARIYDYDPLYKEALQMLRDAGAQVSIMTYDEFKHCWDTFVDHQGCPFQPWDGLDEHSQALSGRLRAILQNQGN
Glutathione S-transferase omega-1, sequence (P78417 whole entry): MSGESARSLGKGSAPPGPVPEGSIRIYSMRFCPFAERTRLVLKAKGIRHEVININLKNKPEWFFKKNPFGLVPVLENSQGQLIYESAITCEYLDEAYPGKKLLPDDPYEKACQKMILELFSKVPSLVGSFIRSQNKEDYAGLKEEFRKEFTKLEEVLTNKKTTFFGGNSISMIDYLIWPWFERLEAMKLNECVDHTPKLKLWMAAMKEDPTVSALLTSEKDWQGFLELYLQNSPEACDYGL
Hexokinase, sequence (Q38C41 whole entry): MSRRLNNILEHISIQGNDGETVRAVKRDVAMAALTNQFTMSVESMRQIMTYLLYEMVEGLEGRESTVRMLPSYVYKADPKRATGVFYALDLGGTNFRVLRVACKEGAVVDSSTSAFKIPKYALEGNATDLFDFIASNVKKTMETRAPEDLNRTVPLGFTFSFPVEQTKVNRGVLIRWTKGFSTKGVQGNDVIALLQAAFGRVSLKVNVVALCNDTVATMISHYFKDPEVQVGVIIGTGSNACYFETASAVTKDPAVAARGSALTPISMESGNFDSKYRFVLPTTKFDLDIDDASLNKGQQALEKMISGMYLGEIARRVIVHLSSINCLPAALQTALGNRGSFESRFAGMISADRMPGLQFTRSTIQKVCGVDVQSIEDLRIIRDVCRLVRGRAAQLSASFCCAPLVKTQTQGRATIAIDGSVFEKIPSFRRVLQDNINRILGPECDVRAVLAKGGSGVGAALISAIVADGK
Complement C1s subcomponent, sequence (P09871 16-437 limits assumed): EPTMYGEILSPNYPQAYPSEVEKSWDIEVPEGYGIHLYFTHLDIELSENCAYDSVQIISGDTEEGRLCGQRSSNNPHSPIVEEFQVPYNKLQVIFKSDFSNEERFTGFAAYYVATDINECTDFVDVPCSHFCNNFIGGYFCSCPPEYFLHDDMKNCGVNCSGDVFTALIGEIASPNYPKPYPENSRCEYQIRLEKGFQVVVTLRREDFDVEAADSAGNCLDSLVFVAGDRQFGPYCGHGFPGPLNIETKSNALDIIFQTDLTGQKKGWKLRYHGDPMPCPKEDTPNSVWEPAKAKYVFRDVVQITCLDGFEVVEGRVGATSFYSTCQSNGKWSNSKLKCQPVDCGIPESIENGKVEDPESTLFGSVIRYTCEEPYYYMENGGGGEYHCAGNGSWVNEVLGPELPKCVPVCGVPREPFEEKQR
Complement C1s subcomponent, sequence (P09871 438-688 limits assumed): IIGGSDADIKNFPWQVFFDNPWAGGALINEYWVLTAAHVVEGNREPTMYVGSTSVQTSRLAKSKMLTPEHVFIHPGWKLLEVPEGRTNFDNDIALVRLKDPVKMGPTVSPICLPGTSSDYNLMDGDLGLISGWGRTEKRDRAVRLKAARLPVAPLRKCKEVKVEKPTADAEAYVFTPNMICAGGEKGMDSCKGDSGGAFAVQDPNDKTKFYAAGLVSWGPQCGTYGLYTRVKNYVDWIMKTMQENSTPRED
Voltage-dependent T-type calcium channel subunit alpha-1H, sequence (O95180 whole entry): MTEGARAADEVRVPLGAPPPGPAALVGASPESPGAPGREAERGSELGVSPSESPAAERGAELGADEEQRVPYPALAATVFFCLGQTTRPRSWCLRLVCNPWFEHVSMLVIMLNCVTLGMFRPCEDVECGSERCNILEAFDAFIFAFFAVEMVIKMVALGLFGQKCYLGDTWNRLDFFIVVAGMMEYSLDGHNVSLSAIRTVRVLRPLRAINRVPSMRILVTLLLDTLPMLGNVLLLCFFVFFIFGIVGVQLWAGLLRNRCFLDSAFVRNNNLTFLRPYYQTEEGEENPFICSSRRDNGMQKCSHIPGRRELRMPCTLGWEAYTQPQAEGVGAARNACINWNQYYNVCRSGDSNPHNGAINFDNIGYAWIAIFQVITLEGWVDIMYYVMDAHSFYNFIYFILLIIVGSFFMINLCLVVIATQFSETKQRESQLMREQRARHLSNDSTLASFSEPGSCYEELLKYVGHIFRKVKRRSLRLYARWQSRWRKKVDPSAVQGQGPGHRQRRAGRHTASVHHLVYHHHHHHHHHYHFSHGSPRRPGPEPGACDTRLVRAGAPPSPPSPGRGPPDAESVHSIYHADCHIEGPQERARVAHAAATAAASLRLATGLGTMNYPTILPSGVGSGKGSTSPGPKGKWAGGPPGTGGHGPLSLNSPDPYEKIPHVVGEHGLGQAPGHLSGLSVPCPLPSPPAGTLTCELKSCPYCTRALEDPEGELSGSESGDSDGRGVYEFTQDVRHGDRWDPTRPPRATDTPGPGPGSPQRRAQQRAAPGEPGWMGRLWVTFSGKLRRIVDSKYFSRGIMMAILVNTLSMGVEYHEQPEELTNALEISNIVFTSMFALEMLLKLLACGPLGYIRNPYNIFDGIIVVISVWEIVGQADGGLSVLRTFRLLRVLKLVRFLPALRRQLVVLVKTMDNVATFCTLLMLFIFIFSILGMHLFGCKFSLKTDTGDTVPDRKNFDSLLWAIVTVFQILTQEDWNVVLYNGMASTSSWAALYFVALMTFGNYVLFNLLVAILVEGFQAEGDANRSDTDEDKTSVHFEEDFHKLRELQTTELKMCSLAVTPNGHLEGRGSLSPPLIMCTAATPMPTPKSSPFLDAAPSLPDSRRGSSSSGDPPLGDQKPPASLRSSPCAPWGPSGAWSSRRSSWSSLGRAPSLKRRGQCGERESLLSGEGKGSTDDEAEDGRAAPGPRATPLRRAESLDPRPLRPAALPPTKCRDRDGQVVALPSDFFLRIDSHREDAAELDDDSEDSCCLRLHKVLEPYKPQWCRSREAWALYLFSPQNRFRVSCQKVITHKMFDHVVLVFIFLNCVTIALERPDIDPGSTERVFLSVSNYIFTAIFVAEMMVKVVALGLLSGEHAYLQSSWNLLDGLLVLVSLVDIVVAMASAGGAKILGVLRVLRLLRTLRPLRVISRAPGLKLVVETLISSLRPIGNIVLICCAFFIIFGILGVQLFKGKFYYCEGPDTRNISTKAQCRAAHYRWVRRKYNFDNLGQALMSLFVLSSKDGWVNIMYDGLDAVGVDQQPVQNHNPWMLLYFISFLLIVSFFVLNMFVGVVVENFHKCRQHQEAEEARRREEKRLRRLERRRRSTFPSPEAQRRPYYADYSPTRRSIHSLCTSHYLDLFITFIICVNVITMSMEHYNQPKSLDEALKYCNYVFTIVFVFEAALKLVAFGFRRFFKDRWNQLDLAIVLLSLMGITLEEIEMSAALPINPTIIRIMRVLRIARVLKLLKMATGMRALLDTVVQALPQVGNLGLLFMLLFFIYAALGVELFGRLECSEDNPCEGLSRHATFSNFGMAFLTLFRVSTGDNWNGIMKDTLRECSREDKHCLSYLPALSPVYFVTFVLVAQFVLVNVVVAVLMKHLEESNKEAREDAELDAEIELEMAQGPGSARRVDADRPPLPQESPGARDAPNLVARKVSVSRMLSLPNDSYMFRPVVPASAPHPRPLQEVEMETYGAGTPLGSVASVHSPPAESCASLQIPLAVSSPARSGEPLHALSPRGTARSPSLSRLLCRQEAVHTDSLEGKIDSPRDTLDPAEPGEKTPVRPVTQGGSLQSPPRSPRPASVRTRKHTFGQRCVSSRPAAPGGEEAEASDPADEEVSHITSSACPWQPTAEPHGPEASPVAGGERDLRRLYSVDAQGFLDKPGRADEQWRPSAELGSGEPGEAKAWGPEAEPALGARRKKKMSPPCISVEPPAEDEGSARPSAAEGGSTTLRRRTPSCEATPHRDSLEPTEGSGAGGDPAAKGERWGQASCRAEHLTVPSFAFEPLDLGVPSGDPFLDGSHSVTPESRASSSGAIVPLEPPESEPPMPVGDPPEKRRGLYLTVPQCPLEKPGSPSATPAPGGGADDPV
DNA dC->dU-editing enzyme APOBEC-3G, sequence (Q9HC16 whole entry): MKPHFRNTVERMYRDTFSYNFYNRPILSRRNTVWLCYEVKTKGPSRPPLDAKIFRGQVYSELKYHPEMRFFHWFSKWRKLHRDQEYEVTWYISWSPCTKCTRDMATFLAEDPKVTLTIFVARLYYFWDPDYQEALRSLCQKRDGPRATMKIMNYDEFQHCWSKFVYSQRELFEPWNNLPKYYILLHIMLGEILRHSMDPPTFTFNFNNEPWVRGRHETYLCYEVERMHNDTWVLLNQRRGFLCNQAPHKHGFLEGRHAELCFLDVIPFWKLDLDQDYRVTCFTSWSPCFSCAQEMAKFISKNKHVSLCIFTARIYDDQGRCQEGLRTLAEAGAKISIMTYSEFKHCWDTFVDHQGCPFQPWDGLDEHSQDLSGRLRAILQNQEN
Sphingosine 1-phosphate receptor 4, sequence (O95977 whole entry): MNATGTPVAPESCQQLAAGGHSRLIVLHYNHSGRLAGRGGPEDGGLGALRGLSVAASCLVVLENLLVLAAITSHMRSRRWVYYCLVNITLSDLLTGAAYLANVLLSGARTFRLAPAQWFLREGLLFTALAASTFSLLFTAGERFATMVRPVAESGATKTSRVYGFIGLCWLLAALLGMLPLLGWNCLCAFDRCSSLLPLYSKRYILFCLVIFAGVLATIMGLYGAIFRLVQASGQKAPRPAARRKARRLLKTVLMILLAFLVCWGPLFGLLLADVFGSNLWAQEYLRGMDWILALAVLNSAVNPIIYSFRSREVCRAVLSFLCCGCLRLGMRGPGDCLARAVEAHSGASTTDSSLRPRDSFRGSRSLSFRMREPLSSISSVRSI

N#CC(C#N)C(c1ccsc1)c1c(-c2ccccc2)n[nH]c1O (centres undefined)
EC50 [1]: 17.4 µM (inactive)
IC50 [2]: > 29.9 µM (inactive)
IC50 [3]: 36.7 µM (active)
EC50 [4]: 0.468 µM (active)
AC50 [5]: 2.85 µM (active)
CC50 [6]: > 40 µM (active)

CC1CCCCC1NC(=O)COC(=O)c1ccc2ncsc2c1 (centres undefined)
EC50 [7]: 48.4 µM (inactive)

O=C(c1csc2c1CCCC2)n1cccn1
IC50 [8]: > 50 µM (not active)
IC50 [9]: 5.39 µM (active)

CCc1nc(SCC(=O)N2CCN(c3ccccc3)CC2)c2oc3ccccc3c2n1
IC50 [10]: > 20 µM (inactive)
EC50 [11]: > 20 µM (inactive)
IC50 [12]: 5.63 µM (inactive)
IC50 [13]: 17.7 µM (active)
EC50 [4]: > 380 µM (inactive)
AC50 [5]: 2 µM (active)
EC50 [14]: 4.73 µM (active)

COC(=O)c1cc(Cl)ccc1NC(=O)c1ccc(OC)cc1
IC50 [15]: > 25 µM (inactive)

C#CCN(CCCN(C(=O)CCl)c1ccc([N+](=O)[O-])cc1)C(=O)C(F)(F)F
IC50 [16]: 0.023 µM (active)

COC(=O)c1ncccc1OCCOc1ccc(Cl)cc1Cl
EC50 [17]: > 50 µM (inactive)

O=C(COc1ccc(Cl)cc1)Nc1nnc(-c2ccc(F)cc2)o1
EC50 [18]: 1.8 µM (active)

CC(/C=N/n1c(S)nnc1-c1ccco1)=C\c1ccco1
IC50 [19]: 2.62 µM (active)
IC50 [20]: > 100 µM (inactive)

Cc1cc(NC2CCCCC2)nc(NCc2ccccc2)n1
EC50 [21]: 1.61 µM (active)
AC50 [22]: 2.83 µM (active)
IC50 [23]: 10.7 µM (active)
CC50 [24]: 12.9 µM (active)
CC50 [25]: 16.1 µM (active)
EC50 [26]: 8.62 µM (active)
CC50 [27]: > 20 µM (active)
